# Results as given in patent US6187906A, “Methods to improve neural outcome” (Aukland Uniservices Limited, priority 1998, dated 2001).
# Columns and labels:
# [1] = system: hypoxic-ischemic brain injury; experiment: Hypoxic-ischemic brain injury in adult rats, central GPE (Experiment 3); type: in vivo, Wistar rats
# Procedure: The objective of this study was to compare the effects of treatment with GPE to that of vehicle given 2 hours after a hypoxic-ischemic brain injury.
# Unilateral hypoxic-ischemic injury was induced in adult 300±10 g) male Wistar rats. The rats underwent unilateral carotid ligation under light halothane anaesthesia. Following one hour recovery they were placed in an incubator at 34C at 85±5% humidity for one hour before injury. They were subjected to 10 min inhalational asphyxia (FiO2 6.0%) and maintained in the incubator for one hour after asphyxia. Two hours after the termination of the inhalation injury, a single stereotaxically controlled lateral cerebroventricular injection of either 3 μGPE (n=15) or phosphate buffered saline alone (n=15) was given. The animals were then maintained for 120 hrs, anaesthetized and the brains fixed in situ for histological assessment.
# Surviving and dead neurons were discriminated with the use of a thionin/acid fuchsin staining technique [C. Williams, A. Gunn, C. Mallard, P. Gluckman Ped Res. (1990). A. Brown, J. Brierley, J. Neurol Sci, 16:59-84 (1971)]. The results are shown in FIG. 3; using a scoring technique. […] Similar to our previous study with IGF-1 the incidence of cortical infarction was lower following GPE treatment at 27% compared to the control/vehicle treated rats at 53% (Guan et al J Cereb Blood Flow Metab. 13:609-616 (1993)).
# (The incidence of hippocampal damage was reduced following treatment with 3 μg GPE. The asterisk indicates a probability of under <0.05.
# For this figure the columns A and B indicate the proportional loss of area (which can be extrapolated to indicate volume using the well-known principles of stereology) between the left and rights sides of the cortex of the brain, for either a control vehicle or 3 μG of GPE. Volumes were measured using computer-aided image analysis techniques. […] Neurones were counted after staining, with the aid of a microscope. […] Thus a single central injection of GPE following an asphyxial injury in the adult rat was associated with a marked improvement in outcome as assessed histologically.
# [2] = system: TH positive neurons of the SNc; experiment: 6-OHDA lesion of medial forebrain bundle, TH neuron number and staining density in SNc (Experiment 6); type: in vivo
# Procedure: A paired experimental design was used and the experimenter was blinded to the treatment groups. Eighteen male Wistar rats (50-60 days old, 280-310 g) were used for this study. 6-hydroxy dopamine (6-OHDA) was prepared as 8 μg in a base of 2 μl 0.9% saline containing 1% ascorbic acid. It was administered into the right medial forebrain bundle (MFB) using coordinates of AP +4.7 mm, R 1.6 mm, V -8 mm under anaesthesia of 3% halothane, 6-OHDA was injected into the right MFB using a Hamilton syringe (100 μl with a 30G needle) controlled by a microdialysis infusion pump at an infusion rate of 0.2 μl/minute. The infusion needle was then slowly withdrawn 5 minutes after infusion. The surgery procedures for the intracerebroventricular administration have been described by Guan et al (1993), Journal of Cerebral Blood Flow and Metab, 13, 609-616. Briefly, a guide cannula (21G, 6 mm) was fixed on the top of the dura with coordinates of AP +7.5 mm, R 1.5 mm immediately after the injection of 6-OHDA. Either GPE (3 μg/15 μl) or its vehicle were infused into the right lateral ventricle 2 hours later at an infusion rate of 2 μl/minute (Guan et al (1993)). Rats were then housed in a holding room with food and water ad libitum for the next 2 weeks.
# The rats were then deeply anaesthetized with an overdose of pentobarbital and transcardially perfused with normal saline followed by 10% buffered formalin. The brains were removed from the skull and kept in the same fixative for the next 48 hours. A standard paraffin tissue preparation was used to process the tissue so that it could be used for immunohistochemistry. […]
# The number of TH positive neurons on both sides of the SNc were counted using light microscopic examination (20×magnification) at three representative levels (AP +4.2, +3.8 mm and […]) (Paxinos, et al (1982) New York: Academic Press).
# The average density from the background was also measured. […] The difference in average density between the background and TH immunostaining was calculated and used for data analysis. […]
smiles,measurement,setting,value
"NCC(=O)N1CCC[C@H]1C(=O)N[C@@H](CCC(=O)O)C(=O)O [GPE, gly-pro-glu]",incidence of hippocampal damage in the ligated hemisphere,"[1]; 3 μg GPE 2 hours after hypoxia, p<0.05 vs vehicle",reduced the incidence of hippocampal damage
same,incidence of cortical infarction,"[1]; 3 μg GPE lateral cerebroventricular injection 2 hours after injury, 120 hrs, vehicle 53%",27%
same,"number of damaged cells (FIG. 4, cortex area and live hippocampal neurones R/L)","[1]; 3 μg GPE, single central injection, p 0.04",significant reduction in the number of damaged cells
same,"TH immunoreactivity (density of TH immunostaining, R/L)","[2]; caudal levels, 3 μg GPE, vehicle 16±11.2, mean ±SEM",99.6±27%
same,neurons remaining in the ipsilateral SNc,"[2]; caudal levels, GPE 3 μg, vehicle 16.3±11.5",over 60.9±13.0%
same,TH immunoreactivity (density of TH immunostaining),"[2]; lesioned (right) side, 3 μg GPE icv 2 hours after 6-OHDA, 2 weeks",restored
